21 compounds from patent publication US20090215778A1, “Alpha-substituted Arylmethyl Piperazine Pyrazolo [1,5-alpha]Pyrimidine Amide Derivatives” (priority 2007, published 2009) can be followed below.

One test concerns HIV-1, NL4-3 strain. In words: Virus infection assay (virus entry and single-cycle infection). The class given is cell-based. The settings on record: Human immunodeficiency virus 1, NL43, TZM-b1, read-out: Nl4. The procedure, abridged: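 TZM-b1 cells (CD4, CXCR4, CCR5; LTR-driven lacZ/luciferase reporters) were infected with HIV-1 NL4-3 (MOI 0.01) with 80 μg/mL DEAE-dextran in the presence of test compound, 4 h at 37 °C before adding complete medium. Infection was quantified one day post-infection as chemiluminescent β-galactosidase signal.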

Test [1] concerns the target T1, HIV Env six-helix bundle (6HB) structure (Human immunodeficiency virus type 1 group M subtype B, UniProt P04579).
T1 construct: H9 cells chronically infected with HIV-1 (H9/HIV-1RF); endogenous in cells; host or cells: H9 cells chronically infected with HIV-1 strain RF (Env is made from the virus in the infected cells, not by transfection)
As to the kind of experiment: Six-helix bundle (6HB) assay. The class given is cell-based, HIV-1 (strain RF). An outline of the steps:
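Chronically HIV-1 RF-infected H9 cells (12-40 days post-infection), 2.5×10^5 per well, were preincubated with compound for 30 min at 37 °C. sCD4 at 1 μg/mL was added for 1 h to trigger Env changes. 6HB-specific rabbit serum (1 h, 37 °C) was then added, followed by PE anti-rabbit (45 min, 4 °C), with flow cytometric fluorescence read-out.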

T1 sequence (P04579 32-519): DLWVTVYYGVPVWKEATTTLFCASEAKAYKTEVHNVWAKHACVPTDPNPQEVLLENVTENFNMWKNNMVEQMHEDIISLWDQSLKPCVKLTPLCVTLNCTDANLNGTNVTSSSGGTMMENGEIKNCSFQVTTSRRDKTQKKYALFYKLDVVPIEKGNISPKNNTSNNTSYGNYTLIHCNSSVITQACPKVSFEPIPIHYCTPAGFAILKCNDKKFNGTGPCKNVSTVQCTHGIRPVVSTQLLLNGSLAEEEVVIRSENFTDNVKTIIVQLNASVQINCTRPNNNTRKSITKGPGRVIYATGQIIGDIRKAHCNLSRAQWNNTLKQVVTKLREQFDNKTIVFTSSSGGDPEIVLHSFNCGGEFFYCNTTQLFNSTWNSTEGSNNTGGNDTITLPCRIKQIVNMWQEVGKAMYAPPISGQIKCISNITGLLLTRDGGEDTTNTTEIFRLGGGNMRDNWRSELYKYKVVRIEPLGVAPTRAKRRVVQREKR
T1 sequence (P04579 520-865): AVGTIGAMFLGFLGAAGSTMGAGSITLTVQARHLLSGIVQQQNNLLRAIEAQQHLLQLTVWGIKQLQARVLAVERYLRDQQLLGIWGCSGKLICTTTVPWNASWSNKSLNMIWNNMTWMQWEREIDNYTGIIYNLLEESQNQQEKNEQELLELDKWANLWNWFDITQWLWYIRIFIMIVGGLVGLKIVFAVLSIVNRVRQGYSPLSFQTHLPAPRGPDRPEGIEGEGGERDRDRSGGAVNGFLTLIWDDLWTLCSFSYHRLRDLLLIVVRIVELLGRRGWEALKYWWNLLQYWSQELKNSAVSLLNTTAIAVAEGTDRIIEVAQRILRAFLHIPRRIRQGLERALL

Turning to `COc1ccc(-c2nc3c(C(=O)N4CCN([C@@H](C)c5ccc(F)c(F)c5)C[C@H]4C)cnn3c(C(F)(F)F)c2C)cc1` [methanone, [(2R)-4-[(1S)-1-(3,4-difluorophenyl)ethyl]-2-methyl-1-piperazinyl][5-(4-methoxyphenyl)-6-methyl-7-(trifluoromethyl)pyrazolo[1,5-α]pyrimidin-3-yl]-], the IC50 in the test on HIV-1, NL4-3 strain was under 1 µM; in test [1], under 1 µM.

`COc1ccc(-c2nc3c(C(=O)N4CCN([C@@H](C)c5cc(F)cc(F)c5)C[C@H]4C)cnn3c(C(F)(F)F)c2C)cc1` [methanone, [(2R)-4-[(1S)-1-(3,5-difluorophenyl)ethyl]-2-methyl-1-piperazinyl][5-(4-methoxyphenyl)-6-methyl-7-(trifluoromethyl)pyrazolo[1,5-α]pyrimidin-3-yl]-]: the IC50 in the test with HIV-1, NL4-3 strain was under 1 µM; in test [1], under 1 µM.

In the case of `COc1ccc(-c2nc3c(C(=O)N4CCN([C@H](CO)c5c(C)noc5C)C[C@H]4C)cnn3c(C(F)(F)F)c2C)cc1` [methanone, [(2R)-4-[(1S)-1-(3,5-dimethyl-4-isoxazolyl)-2-hydroxyethyl]-2-methyl-1-piperazinyl][5-(4-methoxyphenyl)-6-methyl-7-(trifluoromethyl)pyrazolo[1,5-α]pyrimidin-3-yl]-], the IC50 fell in the range of 1.1 to 10 µM in the test on HIV-1, NL4-3 strain and 1.1 to 10 µM in test [1].

Regarding `COc1ccc(-c2nc3c(C(=O)N4CCN([C@@H](C)c5cccc(N)c5)C[C@H]4C)cnn3c(C(F)(F)F)c2C)cc1` [methanone, [(2R)-4-[(1S)-1-(3-aminophenyl)ethyl]-2-methyl-1-piperazinyl][5-(4-methoxyphenyl)-6-methyl-7-(trifluoromethyl)pyrazolo[1,5-α]pyrimidin-3-yl]-], the IC50 with HIV-1, NL4-3 strain was under 1 µM; in test [1], under 1 µM.

As for `COc1ccc(-c2nc3c(C(=O)N4CCN([C@@H](C)c5sccc5Cl)C[C@H]4C)cnn3c(C(F)(F)F)c2C)cc1` [methanone, [(2R)-4-[(1S)-1-(3-chloro-2-thienyl)ethyl]-2-methyl-1-piperazinyl][5-(4-methoxyphenyl)-6-methyl-7-(trifluoromethyl)pyrazolo[1,5-α]pyrimidin-3-yl]-], the IC50 was under 1 µM in the test on HIV-1, NL4-3 strain and under 1 µM in test [1].

Consider `COc1ccc(-c2nc3c(C(=O)N4CCN([C@@H](C)c5ccc(N)cc5)C[C@H]4C)cnn3c(C(F)(F)F)c2C)cc1` [methanone, [(2R)-4-[(1S)-1-(4-aminophenyl)ethyl]-2-methyl-1-piperazinyl][5-(4-methoxyphenyl)-6-methyl-7-(trifluoromethyl)pyrazolo[1,5-α]pyrimidin-3-yl]-], for which the IC50 was under 1 µM with HIV-1, NL4-3 strain and 1.1 to 10 µM in test [1].

Consider `COc1ccc(-c2nc3c(C(=O)N4CCN([C@@H](C)c5ccc(F)cc5)C[C@H]4C)cnn3c(C(F)(F)F)c2C)cc1` [methanone, [(2R)-4-[(1S)-1-(4-fluorophenyl)ethyl]-2-methyl-1-piperazinyl][5-(4-methoxyphenyl)-6-methyl-7-(trifluoromethyl)pyrazolo[1,5-α]pyrimidin-3-yl]-], for which the IC50 was under 1 µM in the test with HIV-1, NL4-3 strain and under 1 µM in test [1].

With `COc1ccc(-c2nc3c(C(=O)N4CCN([C@@H](CO)c5ccc(Cl)s5)C[C@H]4C)cnn3c(C(F)(F)F)c2C)cc1` [methanone, [(2R)-4-[(1S)-1-(5-chloro-2-thienyl)-2-hydroxyethyl]-2-methyl-1-piperazinyl][5-(4-methoxyphenyl)-6-methyl-7-(trifluoromethyl)pyrazolo[1,5-α]pyrimidin-3-yl]-], the IC50 with HIV-1, NL4-3 strain is under 1 µM; in test [1], under 1 µM.

As for `COc1ccc(-c2nc3c(C(=O)N4CCN([C@H](CO)c5cccnc5OC)C[C@H]4C)cnn3c(C(F)(F)F)c2C)cc1` [methanone, [(2R)-4-[(1S)-2-hydroxy-1-(2-methoxy-3-pyridinyl)ethyl]-2-methyl-1-piperazinyl][5-(4-methoxyphenyl)-6-methyl-7-(trifluoromethyl)pyrazolo[1,5-α]pyrimidin-3-yl]-], the IC50 with HIV-1, NL4-3 strain was 1.1 to 10 µM; in test [1] it was 1.1 to 10 µM.

As to `COc1ccc(-c2nc3c(C(=O)N4CCN([C@H](CO)c5ccccc5OC)C[C@H]4C)cnn3c(C(F)(F)F)c2C)cc1` [methanone, [(2R)-4-[(1S)-2-hydroxy-1-(2-methoxyphenyl)ethyl]-2-methyl-1-piperazinyl][5-(4-methoxyphenyl)-6-methyl-7-(trifluoromethyl)pyrazolo[1,5-α]pyrimidin-3-yl]-], the IC50 in the test on HIV-1, NL4-3 strain was under 1 µM; in test [1] it was under 1 µM.

As for `COc1ccc(-c2nc3c(C(=O)N4CCN([C@H](CO)c5cccc(OC)c5)C[C@H]4C)cnn3c(C(F)(F)F)c2C)cc1` [methanone, [(2R)-4-[(1S)-2-hydroxy-1-(3-methoxyphenyl)ethyl]-2-methyl-1-piperazinyl][5-(4-methoxyphenyl)-6-methyl-7-(trifluoromethyl)pyrazolo[1,5-α]pyrimidin-3-yl]-], the IC50 in the test with HIV-1, NL4-3 strain was under 1 µM; in test [1], under 1 µM.

As for `COc1ccc(-c2nc3c(C(=O)N4CCN([C@@H](CO)c5cc(C)cs5)C[C@H]4C)cnn3c(C(F)(F)F)c2C)cc1` [methanone, [(2R)-4-[(1S)-2-hydroxy-1-(4-methyl-2-thienyl)ethyl]-2-methyl-1-piperazinyl][5-(4-methoxyphenyl)-6-methyl-7-(trifluoromethyl)pyrazolo[1,5-α]pyrimidin-3-yl]-], the IC50 with HIV-1, NL4-3 strain was under 1 µM; in test [1], under 1 µM.

Take `COc1ccc(-c2nc3c(C(=O)N4CCN([C@H](CO)c5cscc5C)C[C@H]4C)cnn3c(C(F)(F)F)c2C)cc1` [methanone, [(2R)-4-[(1S)-2-hydroxy-1-(4-methyl-3-thienyl)ethyl]-2-methyl-1-piperazinyl][5-(4-methoxyphenyl)-6-methyl-7-(trifluoromethyl)pyrazolo[1,5-α]pyrimidin-3-yl]-]: the IC50 in the test on HIV-1, NL4-3 strain was under 1 µM; in test [1], under 1 µM.

As for `COc1ccc(-c2nc3c(C(=O)N4CCN([C@@H](CO)c5ccc(C)s5)C[C@H]4C)cnn3c(C(F)(F)F)c2C)cc1` [methanone, [(2R)-4-[(1S)-2-hydroxy-1-(5-methyl-2-thienyl)ethyl]-2-methyl-1-piperazinyl][5-(4-methoxyphenyl)-6-methyl-7-(trifluoromethyl)pyrazolo[1,5-α]pyrimidin-3-yl]-], the IC50 with HIV-1, NL4-3 strain is under 1 µM; in test [1], under 1 µM.

Take `COc1ccc(-c2nc3c(C(=O)N4CCN([C@H](CO)c5ccccc5)C[C@H]4C)cnn3c(C(F)(F)F)c2C)cc1` [methanone, [(2R)-4-[(1S)-2-hydroxy-1-phenylethyl]-2-methyl-1-piperazinyl][5-(4-methoxyphenyl)-6-methyl-7-(trifluoromethyl)pyrazolo[1,5-α]pyrimidin-3-yl]-]: the IC50 was under 1 µM in the test on HIV-1, NL4-3 strain and under 1 µM in test [1].

In the case of `COc1ccc(-c2nc3c(C(=O)N4CCN(C(CO)c5ccccc5NC(=O)C(C)C)C[C@H]4C)cnn3c(C(F)(F)F)c2C)cc1` (stereo partly drawn) [propanamide, N-[2-[2-hydroxy-1-[(3R)-4-[[5-(4-methoxyphenyl)-6-methyl-7-(trifluoromethyl)pyrazolo[1,5-α]pyrimidin-3-yl]carbonyl]-3-methyl-1-piperazinyl]ethyl]phenyl]-2-methyl-], the IC50 in the test with HIV-1, NL4-3 strain was over 10.1 µM; in test [1], over 10.1 µM.

As to `COc1ccc(-c2nc3c(C(=O)N4CCN(C(CO)c5cccc(NC(=O)C(C)C)c5)C[C@H]4C)cnn3c(C(F)(F)F)c2C)cc1` (stereo partly drawn) [propanamide, N-[3-[2-hydroxy-1-[(3R)-4-[[5-(4-methoxyphenyl)-6-methyl-7-(trifluoromethyl)pyrazolo[1,5-α]pyrimidin-3-yl]carbonyl]-3-methyl-1-piperazinyl]ethyl]phenyl]-2-methyl-], the IC50 in the test with HIV-1, NL4-3 strain was 1.1 to 10 µM; in test [1], under 1 µM.

For the compound `COc1ccc(-c2nc3c(C(=O)N4CCN(C(CO)c5ccccc5NC(N)=O)C[C@H]4C)cnn3c(C(F)(F)F)c2C)cc1` (stereo partly drawn) [urea, N-[2-[2-hydroxy-1-[(3R)-4-[[5-(4-methoxyphenyl)-6-methyl-7-(trifluoromethyl)pyrazolo[1,5-α]pyrimidin-3-yl]carbonyl]-3-methyl-1-piperazinyl]ethyl]phenyl]-], the IC50 in the test on HIV-1, NL4-3 strain is over 10.1 µM; in test [1], over 10.1 µM.

For the compound `COc1ccc(-c2nc3c(C(=O)N4CCN(C(CO)c5cccc(NC(N)=O)c5)C[C@H]4C)cnn3c(C(F)(F)F)c2C)cc1` (stereo partly drawn) [urea, N-[3-[2-hydroxy-1-[(3R)-4-[[5-(4-methoxyphenyl)-6-methyl-7-(trifluoromethyl)pyrazolo[1,5-α]pyrimidin-3-yl]carbonyl]-3-methyl-1-piperazinyl]ethyl]phenyl]-], the IC50 was 1.1 to 10 µM in the test on HIV-1, NL4-3 strain and under 1 µM in test [1].

For the compound `COc1ccc(-c2nc3c(C(=O)N4CCN([C@@H](C)c5cccc(NC(N)=O)c5)C[C@H]4C)cnn3c(C(F)(F)F)c2C)cc1` [urea, N-[3-[(1S)-1-[(3R)-4-[[5-(4-methoxyphenyl)-6-methyl-7-(trifluoromethyl)pyrazolo[1,5-α]pyrimidin-3-yl]carbonyl]-3-methyl-1-piperazinyl]ethyl]phenyl]-], the IC50 in the test on HIV-1, NL4-3 strain was under 1 µM; in test [1], under 1 µM.

For the compound `COc1ccc(-c2nc3c(C(=O)N4CCN([C@@H](C)c5ccc(NC(N)=O)cc5)C[C@H]4C)cnn3c(C(F)(F)F)c2C)cc1` [urea, N-[4-[(1)-1-[(3R)-4-[[5-(4-methoxyphenyl)-6-methyl-7-(trifluoromethyl)pyrazolo[1,5-α]pyrimidin-3-yl]carbonyl]-3-methyl-1-piperazinyl]ethyl]phenyl]-], the IC50 is under 1 µM with HIV-1, NL4-3 strain and 1.1 to 10 µM in test [1].
